Test results published in patent US10357481B2 (MERCK SHARP & DOHME CORP., priority 2015, dated 2019).

The molecules below were run against T1, human PDE2A1 (Homo sapiens, UniProt O00408) (assay: IMAP FP PDE selectivity panel, human PDE2A1). Details: Lab B; read-out: Human PDE2 Ki (nM) Lab B.
T1 construct: GST; purchased BPS Bioscience (San Diego, Calif.) 60020; host or cells: insect cells
Format: biochemical
Description: Selectivity for PDE2, as compared to other PDE families, was assessed using the IMAP® technology. Human PDE10A2 enzyme was prepared from cytosolic fractions of transiently transfected HEK cells.
Assays for PDE 1 through 11 were performed in parallel at room temperature in 384-well microtiter plates with an incubation volume of 20.2 μL. Solutions of test compounds were prepared in DMSO and serially diluted with DMSO to yield 30 μL of each of ten solutions differing by 3-fold in concentration, at 32 serial dilutions per plate. […] A Labcyte POD 810 (Labcyte, Sunnyvale, Calif.) was used to dispense 200 nL from each well of the titration plate to make eleven copies of the assay plate for each titration, one copy for each PDE enzyme. A solution of each enzyme (dilution from aliquots, sufficient to produce 20% substrate conversion) and a separate solution of FAM-labeled cAMP or FAM-labeled cGMP from Molecular Devices (Sunnyvale, Calif., product # R7506 or cGMP#R7508), at a final concentration of 50 nM were made in the assay buffer (10 mM Tris HCl, pH 7.2, 10 mM MgCl2, 0.05% NaN3 0.01% Tween-20, and 1 mM DTT). Note that the substrate for PDE2 is 50 nM FAM cAMP containing 1000 nM of cGMP. The enzyme and the substrate were then added to the assay plates in two consecutive additions of 10 μL and then shaken to mix. The reaction was allowed to proceed at room temperature for 60 minutes. A binding solution was then made from the kit components, comprised of 80% Solution A, 20% Solution B and binding reagent at a volume of 1/600 the total binding solution. The enzymatic reaction was stopped by addition of 60 μL of the binding solution to each well of the assay plate. The plates were sealed and shaken for 10 seconds. The plates were incubated at room temperature for one hour, then the parallel and perpendicular fluorescence was measured using a Tecan Genios Pro plate reader (Tecan, Switzerland). […] The intrinsic PDE2 inhibitory activity of a compound which may be used in accordance with the present invention may be determined by these assays.

T1 sequence (O00408 1-920 isoform O00408-2): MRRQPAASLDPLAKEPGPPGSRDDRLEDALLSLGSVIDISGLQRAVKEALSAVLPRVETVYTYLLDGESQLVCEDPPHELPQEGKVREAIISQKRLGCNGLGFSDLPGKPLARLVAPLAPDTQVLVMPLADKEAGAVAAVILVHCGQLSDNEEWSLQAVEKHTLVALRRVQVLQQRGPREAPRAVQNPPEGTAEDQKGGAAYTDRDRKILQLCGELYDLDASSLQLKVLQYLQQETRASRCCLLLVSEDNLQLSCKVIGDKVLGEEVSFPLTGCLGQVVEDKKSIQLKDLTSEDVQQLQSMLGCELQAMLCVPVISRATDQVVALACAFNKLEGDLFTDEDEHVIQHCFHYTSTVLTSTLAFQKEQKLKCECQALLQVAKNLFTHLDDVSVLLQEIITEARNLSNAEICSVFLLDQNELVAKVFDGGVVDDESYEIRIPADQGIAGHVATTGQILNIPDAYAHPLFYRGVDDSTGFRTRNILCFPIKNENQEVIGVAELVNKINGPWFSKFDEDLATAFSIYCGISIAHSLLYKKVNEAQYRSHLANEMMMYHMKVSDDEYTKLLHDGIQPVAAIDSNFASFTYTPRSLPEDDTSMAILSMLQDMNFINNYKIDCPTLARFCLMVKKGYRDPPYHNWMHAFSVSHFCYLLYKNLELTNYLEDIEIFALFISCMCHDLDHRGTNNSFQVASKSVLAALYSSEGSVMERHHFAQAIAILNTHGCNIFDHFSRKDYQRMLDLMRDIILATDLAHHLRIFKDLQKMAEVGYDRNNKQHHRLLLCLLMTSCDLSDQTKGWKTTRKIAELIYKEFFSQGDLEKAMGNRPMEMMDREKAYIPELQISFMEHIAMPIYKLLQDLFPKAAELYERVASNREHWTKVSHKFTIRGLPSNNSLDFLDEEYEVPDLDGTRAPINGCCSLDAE

Ki [nM]	Structure (SMILES)
7.8	Cc1cc(N[C@@H](c2ccc(CC(F)(F)F)cc2)C(C)(C)C)n2ncnc2n1 [Example 35, N-{(1R)-2,2-Dimethyl-1-[4-(2,2,2-trifluoroethyl)phenyl]propyl}-5-methyl[1,2,4]triazolo[1,5-a] pyrimidin-7-amine]
736	Cc1cc(NC(CO)c2ccc(C(F)(F)F)cc2)n2ncnc2n1 (stereo not shown) [Example 88, 2-[(5-Methyl[1,2,4]triazolo[1,5-a]pyrimidin-7-yl)amino]-2-[4-(trifluoromethyl)phenyl]ethanol]
132	Cc1cc(N[C@H](C)c2ccc(OC(F)(F)F)cc2)n2ncnc2n1 [Example 7, 5-Methyl-N-{(1R)-1-[4-(trifluoromethoxy)phenyl]ethyl} [1,2,4]triazolo[1,5-a]pyrimidin-7-amine]
60	Cc1cc(NC(c2ccc(C(F)(F)F)c(F)c2)C(C)(C)N)n2ncnc2n1 (stereo not shown) [Example 252, 1-(3-Fluoro-4-(trifluoromethyl)phenyl)-2-methyl-N-(5-methyl-[1,2,4]triazolo[1,5-a]pyrimidin-7-yl)propane-1,2-diamine]
> 2960	Cc1cc(N[C@H](c2ccc(F)c(OC(F)(F)F)c2)C(C)(C)O)n2ncnc2n1 [Example 131, (1R)-1-[4-Fluoro-3-(trifluoro-methoxy)phenyl]-2-methyl-1-[(5-methyl[1,2,4]triazolo[1,5-a]pyrimidin-7-yl)amino]propan-2-ol]
15	Cc1cc(N[C@@H](c2ccc(OC(F)(F)F)cc2)C(C)(C)O)n2ncnc2n1 [Example 96, (1S)-2-Methyl-1-[(5-methyl [1,2,4]triazolo[1,5-a]pyrimidin-7-yl)amino]-1-[4-(trifluoromethoxy)phenyl]propan-2-ol]
> 2960	CC(C)c1cc(NC(c2ccc(OC(F)(F)F)c(F)c2)C(C)(C)O)n2ncnc2n1 (single isomer, unassigned) [Example 139, (1R or S)-1-[3-Fluoro-4-(trifluoro-methoxy)phenyl]-2-methyl-1-{[5-(1-methylethyl) [1,2,4]triazolo [1,5-a]pyrimidin-7-yl]amino} propan-2-ol]
92	CC(C)(O)[C@@H](Nc1cc(C(F)(F)F)cc2ncnn12)c1ccc(OC(F)(F)F)cc1F [Example 278, (1S)-1-[2-Fluoro-4-(trifluoromethoxy)phenyl]-2-methyl-1-{[7-(trifluoromethyl) [1,2,4]triazolo[1,5α]pyridin-5-yl]amino}propan-2-ol]
> 2960	COCC(Nc1cc(C)nc2ncnn12)c1ccc(C(F)(F)F)c(F)c1 (single isomer, unassigned) [Example 209, (R)- or (S)-N-(1-(3-Fluoro-4-(trifluoromethyl)phenyl)-2-methoxyethyl)-5-methyl-[1,2,4]triazolo [1,5-a]pyrimidin-7-amine]
35	Cc1cc(NC(c2ccc3ccccc3c2)C(C)(C)O)n2ncnc2n1 (single isomer, unassigned) [Example 123, (1R or S)-2-Methyl-1-[(5-methyl [1,2,4]triazolo [1,5-a]pyrimidin-7-yl)amino]-1-naphthalen-2-yl propan-2-ol]
26	Cc1cc(N[C@@H](c2ccc(C3(C)CC3)cc2)C(C)C)n2ncnc2n1 [Example 24, 5-Methyl-N-{(1R)-2-methyl-1-[4-(1-methyl-cyclopropyl)phenyl]propyl} [1,2,4]triazolo[1,5-a]pyrimidin-7-amine]
97	CC(C)(O)C(Nc1cc(C2CC2)nc2ncnn12)c1ccc(OC(F)(F)F)cc1F (single isomer, unassigned) [Example 143, (1R or S)-1-[(5- Cyclopropyl [1,2,4]triazolo [1,5-a]pyrimidin-7-yl)amino)-1-[2-fluoro-4-(trifluoro-methoxy)phenyl]-2-methylpropan-2-ol]
20	CC(C)(O)[C@@H](Nc1cc(C(F)F)cc2ncnn12)c1ccc(C(F)(F)F)cc1 [Example 280, (1S)-1-{[7-(Difluoromethyl) [1,2,4]triazolo[1,5-a]pyridin-5-yl]amino}-1-[4-(trifluoromethyl)phenyl]-2-methylpropan-2-ol]
162	Cc1cc(NC2(c3ccc(C(F)(F)F)cc3F)CC2)n2ncnc2n1 [Example 62, N-{1-[2-Fluoro-4-(trifluoromethyl)phenyl]cyclopropyl}5-methyl-[1,2,4]triazolo[1,5-a]pyrimidin-7-amine]
> 2960	Cc1cc(NC(c2ccc(OC(F)(F)F)cc2C)C(C)(C)O)n2ncnc2n1 (single isomer, unassigned) [Example 128, (1S or R)-2-Methyl-1-[(5-methyl[1,2,4]triazolo[1,5-a]pyrimidin-7-yl)amino]-1-[2-methyl-4-(trifluoromethoxy)phenyl]propan-2-ol]
19	Cc1cc(N[C@@H](c2ccc(SC(F)(F)F)c(F)c2)C2CC2)n2ncnc2n1 [Example 41, N-[(R)-Cyclopropyl{3-fluoro-4-[(trifluoromethyl)sulfanyl]phenyl}methyl]-5-methyl[1,2,4]triazolo[1,5-a] pyrimidin-7-amine]
50	CC(C)(O)C(Nc1cc(C(F)(F)F)nc2ncnn12)c1ccc(CC(F)(F)F)cc1 (single isomer, unassigned) [Example 169, (1S or R)-2-Methyl-1-[4-(2,2,2-trifluoroethyl)phenyl]-1-{[5-(trifluoromethyl) [1,2,4]triazolo [1,5-a]pyrimidin-7-yl]amino} propan-2-ol]
292	Cc1cc(N[C@@H](c2ccc(C(F)(F)F)c(F)c2)C(C)(C)C)n2ncnc2c1 [Example 264, (R)—N-{1-[3-Fluoro-4-(trifluoromethyl)phenyl]-2,2-dimethylpropyl}-7-methyl-[1,2,4]triazolo[1,5-a]pyridin-5-amine]
> 2960	Cc1cc(N[C@H](c2ccc(C(F)(F)F)cc2)C(C)(C)O)n2ncnc2n1 [Example 95, (1R)-2-Methyl-1-[(5-methyl [1,2,4]triazolo[1,5-a]pyrimidin-7-yl)amino]-1-[4-(trifluoromethyl)phenyl]propan-2-ol]
4.9	Cc1cc(N[C@@H](c2ccc(C3CC3)c(F)c2)C(C)(C)C)n2ncnc2n1 [Example 31, N-[(1R)-1-(4-Cyclopropyl-3-fluorophenyl)-2,2-dimethylpropyl]-5-methyl[1,2,4]triazolo[1,5-a] pyrimidin-7-amine]
22	Fc1cc(C2(Nc3cncc4ncnn34)CC2)ccc1C(F)(F)F [Example 285, N-{1-[3-Fluoro-4-(trifluoromethyl)phenyl]cyclopropyl}[1,2,4]triazolo [1,5-a]pyrazin-5-amine]
144	Cc1cc(NC2(c3ccc(C(F)(F)F)c(F)c3)CC2)n2nc(C3CC3)nc2n1 [Example 195, 2-Cyclopropyl-N-(1-(3-fluoro-4-(trifluoromethyl)phenyl)cyclopropyl)-5-methyl-[1,2,4]triazolo [1,5-a]pyrimidin-7-amine]
26	Cc1cc(NC(c2ccc(OC(F)F)cc2)C(C)(C)O)n2ncnc2n1 (single isomer, unassigned) [Example 111, (1R or S)-1-[4-(Difluoro-methoxy)phenyl]-2-methyl-1-[(5-methyl[1,2,4]triazolo[1,5-a]pyrimidin-7-yl)amino]propan-2-ol]
612	CC(C)(O)C(Nc1cc(Cl)nc2ncnn12)c1ccc(C(F)(F)F)c(F)c1 (single isomer, unassigned) [Example 224, (S)- or (R)-1-(5-Chloro-[1,2,4]triazolo [1,5-a]pyrimidin-7-ylamino)-1-(3-fluoro-4-(trifluoromethyl)phenyl)-2-methylpropan-2-ol]
150	CC(C)(O)[C@@H](Nc1cncc2ncnn12)c1ccc(C(F)(F)F)cc1 [Example 287, (1S)-2-Methyl-1-([1,2,4]triazolo[1,5-a]pyrazin-5-ylamino)-1-[4-(trifluoromethyl)phenyl]propan-2-ol]
608	Cc1cc(NC2(c3ccc(C(F)(F)F)c(F)c3)CC2)n2nc(N(C)C)nc2n1 [Example 256, N^7-{1-[3-Fluoro-4-(trifluoromethyl)phenyl]cyclopropyl}-N^2,N^2,5-trimethyl[1,2,4]triazolo[1,5-a]pyrimidine-2,7-diamine]
25	CC(C)(O)C(Nc1cc(C(F)(F)F)nc2ncnn12)c1ccc(C(F)(F)F)c(F)c1 (single isomer, unassigned) [Example 214, (S)- or (R)-1-(3-Fluoro-4-(trifluoromethyl)phenyl)-2-methyl-1-(5-(trifluoromethyl)-[1,2,4]triazolo [1,5-a]pyrimidin-7-ylamino)propan-2-ol]
525	Cc1cc(N[C@@](C)(c2ccc(OC(F)(F)F)cc2)C(C)(C)O)n2ncnc2n1 [Example 155, (3S)-2-Methyl-3-[(5-methyl[1,2,4]triazolo[1,5-a]pyrimidin-7-yl)amino]-3-[4-(trifluoromethoxy)phenyl]butan-2-ol]
